Columns and labels:
MT4 [1] = assay: Cytotoxic concentration required to reduce the viability of mock-infected MT-4 cells by 50%; assay type: functional; settings: Homo sapiens
[2] = Effective concentration required to achieve 50% protection of MT-4 cells against the cytopathic effect of HIV-1 virus.; assay type: functional, cell-based; settings: Human immunodeficiency virus 1, MT4
Mus musculus [3] = species: Mus musculus; assay: Reduced GM-CSF dependent colony formation in murine bone marrow progenitor cells at 0.05 uM; assay type: functional
Mus musculus [4] = species: Mus musculus; assay: Reduced IL-3 dependent colony formation in murine bone marrow progenitor cells at 0.5 uM; assay type: functional
Mus musculus [5] = species: Mus musculus; assay: Reduced IL-3 dependent colony formation in murine bone marrow progenitor cells at 0.05 uM; assay type: functional
Mus musculus [6] = species: Mus musculus; assay: Reduced IL-3 dependent colony formation in murine bone marrow progenitor cells at 50 uM; assay type: functional
MT4 [7] = assay: The cytotoxic concentration of compound required to reduce the viability of mock-infected MT-4 cells by 50% on HIV-1 virus A012D strain; assay type: functional; settings: Homo sapiens
Mus musculus [8] = species: Mus musculus; assay: Reduced GM-CSF dependent colony formation in murine bone marrow progenitor cells at 0.5 uM; assay type: functional
Mus musculus [9] = species: Mus musculus; assay: Reduced IL-3 dependent colony formation in murine bone marrow progenitor cells at 5 uM; assay type: functional
Homo sapiens [10] = species: Homo sapiens; assay: The effective concentration required to achieve 50% protection of human peripheral blood lymphocytes against the cytopathic effect of HIV-1 virus HTLV-IIIB strain; assay type: functional, organism-based
MT4 [11] = assay: The cytotoxic concentration of compound required to reduce the viability of mock-infected MT-4 cells by 50% on HIV-1 virus LAV-2ROD strain; assay type: functional; settings: Homo sapiens
Homo sapiens [12] = species: Homo sapiens; assay: The cytotoxic concentration of compound required to reduce the viability of mock-infected PBL cells by 50% on HIV-1 virus HTLV-IIIB strain; assay type: functional
Mus musculus [13] = species: Mus musculus; assay: Reduced GM-CSF dependent colony formation in murine bone marrow progenitor cells at 50 uM; assay type: functional
Mus musculus [14] = species: Mus musculus; assay: Reduced GM-CSF dependent colony formation in murine bone marrow progenitor cells at 5 uM; assay type: functional
MT4 [15] = assay: The effective concentration required to achieve 50% protection of MT-4 cells against the cytopathic effect of HIV-2 virus LAV-2ROD; assay type: functional, cell-based; settings: Homo sapiens
MT4 [16] = assay: The effective concentration required to achieve 50% protection of MT-4 cells against the cytopathic effect of HIV-1 virus A012D strain; assay type: functional, cell-based; settings: Homo sapiens
Mus musculus [17] = species: Mus musculus; assay: Reduced IL-3 dependent colony formation in murine bone marrow progenitor cells at 5uM; assay type: functional
Mus musculus [18] = species: Mus musculus; assay: Reduced GM-CSF dependent colony formation in murine bone marrow progenitor cells at 5uM; assay type: functional

SMILES	CC50 (MT4 [1]) [µM]	EC50 [2] [µM]	also measured
Cc1c(CCc2ccccc2)n(COCCO)c(=O)[nH]c1=O	444	> 444	–
CCOCn1c(Cc2cc(C)cc(C)c2)c(CC)c(=O)[nH]c1=O	207	0.0016	–
CCOCn1c(Cc2cc(C)cc(C)c2)c(C(C)C)c(=O)[nH]c1=O	43	0.0006	–
CCCCn1c(Cc2ccccc2)c(CC)c(=O)[nH]c1=O	> 500	0.21	–
COCCn1c(Cc2ccccc2)c(C(C)C)c(=O)[nH]c1=O	195	0.052	–
Cc1c(Cc2ccccc2)n(COCCO)c(=O)[nH]c1=O	–	23	–
CCc1c(Cc2ccccc2)n(CCOC)c(=O)[nH]c1=O	362	0.25	–
CCOCn1c(Cc2ccccc2)c(CC)c(=O)[nH]c1=O	245	0.041	–
CCCCn1c(Cc2ccccc2)c(C(C)C)c(=O)[nH]c1=O	58	0.042	–
CC(C)c1c(Cc2ccccc2)n(COCCO)c(=O)[nH]c1=O	295	0.063	–
Cc1cc(C)cc(Cc2c(C(C)C)c(=O)[nH]c(=O)n2COCCO)c1	221	0.0027	–
Cc1c(-c2ccccc2)n(COCCO)c(=O)[nH]c1=O	166	> 166	–
CCc1c(Cc2cc(C)cc(C)c2)n(COCCO)c(=O)[nH]c1=O	281	0.013	–
CCc1c(Cc2ccccc2)n(COCCO)c(=O)[nH]c1=O	391	0.35	–
CCOCn1c(Cc2ccccc2)c(C(C)C)c(=O)[nH]c1=O [EMIVIRINE]	186	0.0042	Colony_count (Mus musculus [3]): 89; Colony_count (Mus musculus [4]): 137; Colony_count (Mus musculus [5]): 136; Colony_count (Mus musculus [6]): 109; CC50 (MT4 [7]): 102 µM; Colony_count (Mus musculus [8]): 75; Colony_count (Mus musculus [9]): 137; EC50 (Homo sapiens [10]): 0.004 µM; CC50 (MT4 [11]): 102 µM; CC50 (Homo sapiens [12]): 90 µM; Colony_count (Mus musculus [13]): 57; Colony_count (Mus musculus [14]): 77; EC50 (MT4 [15]): > 102 µM; EC50 (MT4 [16]): 0.003 µM
Cc1c(Sc2ccccc2)n(COCCO)c(=O)[nH]c1=O [HEPT]	740	7	–
Cc1cn([C@H]2C[C@H](N=[N+]=[N-])[C@@H](CO)O2)c(=O)[nH]c1=O [ZIDOVUDINE]	7.8	0.003	Colony_count (Mus musculus [3]): 85; Colony_count (Mus musculus [4]): 109; Colony_count (Mus musculus [5]): 141; Colony_count (Mus musculus [6]): 10; CC50 (MT4 [7]): 7.8 µM; Colony_count (Mus musculus [17]): 74; Colony_count (Mus musculus [8]): 70; Colony_count (Mus musculus [18]): 47; EC50 (Homo sapiens [10]): 0.002 µM; CC50 (MT4 [11]): 7.8 µM; CC50 (Homo sapiens [12]): 12 µM; Colony_count (Mus musculus [13]): 14; EC50 (MT4 [16]): 0.3 µM

Reference: ChEMBL document CHEMBL1128585, “Synthesis and antiviral activity of 6-benzyl analogs of 1-[(2-hydroxyethoxy)methyl]-6-(phenylthio)thymine (HEPT) as potent and selective anti-HIV-1 agents” (J Med Chem, 1995)
